Reference: patent publication US6262084A, “Compounds that inhibit the binding of integrins to their receptors” (Texas Biotechnology Corporation, priority 1999, dated 2001)

Target: T1, α4β1 integrin (Homo sapiens, UniProt P05556+P13612)
T1 construct: Ramos cells fluorescently labeled with calcein; endogenous in cells; host or cells: Ramos cells
Test: Inhibition of adhesion of calcein-labeled Ramos cells to CS1 (fibronectin) peptide-conjugated ovalbumin
Format: cell-based
Settings: Table 1; for inhibition at 100 µM: Ramos, compound at a concentration of 100 μM, read-out: % A (percent inhibition of cell adhesion); for IC50: dose required to give 50% inhibition, Ramos cell adhesion to CS1-ovalbumin, 30 minutes at 37° C
Description: The ability of compounds of the present invention to inhibit binding is described in detail hereinafter in the Examples by a procedure in which a 26-amino acid peptide containing the CS1 sequence of fibroncctin with an N-terminal Cys was coupled to maleimide activated ovalbumin. Ovalbumin and CS1 conjugated ovalbumin were coated onto 96-well polystyrene plates at 5 μg/ml in TBS (50 mM Tris, pH 7.5; 150 mM NaCl) at 4° C. for 16 hours. The plates were washed three times with TBS and blocked with TBS containing 3% BSA at room temperature for 4 hours. Blocked plates were washed three times in binding buffer (TBS; 1 mM MgCl2; 1 mM CaCl2; 1 mM MnCl2) prior to assay. Ramos cells fluorescently labeled with calcein AMC-3099 were resuspended in binding buffer (10^7 cells/ml) and diluted 1:2 with same buffer with or without compound. The cells were added immediately to the wells (2.5×10^5 cells/well) and incubated for 30 minutes at 37° C. Following three washes with binding buffer, adherent cells were lysed and quantitated using a fluorometer.
IC50 is defined as the dose required to give 50% inhibition. The lower the IC50 value and the greater the percentage of inhibition, the more efficient the compound is at prevention of cell adhesion. A stands for inhibition in Table 1, and the percent inhibition indicates the inhibition of cell adhesion when compound is included in the assay at a concentration of 100 μM.

T1 sequence (P13612 34-1032): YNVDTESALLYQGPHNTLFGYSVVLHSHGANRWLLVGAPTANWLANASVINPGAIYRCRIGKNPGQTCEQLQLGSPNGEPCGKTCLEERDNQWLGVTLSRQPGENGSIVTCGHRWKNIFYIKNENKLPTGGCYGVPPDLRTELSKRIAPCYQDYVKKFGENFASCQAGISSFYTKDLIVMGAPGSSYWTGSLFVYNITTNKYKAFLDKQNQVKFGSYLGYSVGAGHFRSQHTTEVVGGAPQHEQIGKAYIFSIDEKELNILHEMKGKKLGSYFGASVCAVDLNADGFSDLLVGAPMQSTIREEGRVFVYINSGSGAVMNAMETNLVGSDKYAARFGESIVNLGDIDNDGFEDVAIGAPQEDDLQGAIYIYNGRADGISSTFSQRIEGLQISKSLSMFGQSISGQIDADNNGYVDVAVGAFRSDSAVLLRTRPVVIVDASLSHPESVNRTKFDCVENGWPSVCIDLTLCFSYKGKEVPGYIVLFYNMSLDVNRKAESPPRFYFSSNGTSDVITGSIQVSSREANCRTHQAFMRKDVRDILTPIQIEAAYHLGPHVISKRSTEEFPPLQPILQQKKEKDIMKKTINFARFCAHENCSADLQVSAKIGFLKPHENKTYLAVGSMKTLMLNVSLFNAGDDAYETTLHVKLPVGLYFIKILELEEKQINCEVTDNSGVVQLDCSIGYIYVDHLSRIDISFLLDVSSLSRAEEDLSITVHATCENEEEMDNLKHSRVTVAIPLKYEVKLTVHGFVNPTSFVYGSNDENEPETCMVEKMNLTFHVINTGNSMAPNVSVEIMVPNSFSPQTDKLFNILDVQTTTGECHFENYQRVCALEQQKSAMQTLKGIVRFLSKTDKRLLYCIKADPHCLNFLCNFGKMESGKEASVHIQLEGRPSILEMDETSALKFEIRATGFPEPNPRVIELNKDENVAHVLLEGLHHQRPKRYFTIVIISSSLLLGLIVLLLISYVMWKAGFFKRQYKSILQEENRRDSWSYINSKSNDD
T1 sequence (P05556 21-798): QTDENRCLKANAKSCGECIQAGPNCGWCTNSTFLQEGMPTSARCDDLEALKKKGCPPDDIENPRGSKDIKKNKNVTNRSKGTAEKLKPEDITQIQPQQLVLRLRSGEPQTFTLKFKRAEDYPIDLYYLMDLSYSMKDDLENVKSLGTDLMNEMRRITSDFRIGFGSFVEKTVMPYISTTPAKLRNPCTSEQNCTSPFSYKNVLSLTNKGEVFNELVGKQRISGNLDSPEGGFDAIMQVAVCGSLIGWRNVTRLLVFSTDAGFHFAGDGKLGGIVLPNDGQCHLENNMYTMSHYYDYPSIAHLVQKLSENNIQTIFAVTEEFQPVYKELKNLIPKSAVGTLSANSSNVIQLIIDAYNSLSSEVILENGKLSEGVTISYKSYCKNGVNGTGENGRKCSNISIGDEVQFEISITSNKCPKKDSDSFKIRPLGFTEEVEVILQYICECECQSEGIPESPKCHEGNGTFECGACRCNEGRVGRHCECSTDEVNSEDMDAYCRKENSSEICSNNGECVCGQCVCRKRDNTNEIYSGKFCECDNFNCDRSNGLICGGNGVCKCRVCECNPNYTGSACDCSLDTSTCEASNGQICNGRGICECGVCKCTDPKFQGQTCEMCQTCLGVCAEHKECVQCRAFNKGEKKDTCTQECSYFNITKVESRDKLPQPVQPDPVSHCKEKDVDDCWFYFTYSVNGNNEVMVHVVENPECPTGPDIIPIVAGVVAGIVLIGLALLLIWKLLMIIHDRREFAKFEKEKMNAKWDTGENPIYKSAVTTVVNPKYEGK

Row | inhibition at 100 µM | IC50 | SMILES
1 | 66% | 45 µM | COc1ccc(CNC(=O)[C@@H](CC(C)C)NC(=O)NC(CC(=O)O)c2ccc3c(c2)OCO3)cc1 (stereo partly drawn) [3-(1,3-benzodioxol-5-yl)-3-({[((1R)-1-{[(4-methoxybenzyl)amino]carbonyl}-3-methylbutyl)amino]carbonyl}amino)propanoic acid]
2 | 100% | 0.5 µM | COc1ccc(CNC(=O)[C@H](CC(C)C)NC(=O)NC(CC(=O)O)c2ccc3c(c2)OCO3)cc1 (stereo partly drawn) [3-(1,3-benzodioxol-5-yl)-3-({[((1S)-1-{[(4-methoxybenzyl)amino]carbonyl}-3-methylbutyl)amino]carbonyl}amino)propanoic acid]
3 | 83% | 40 µM | CC(C)[C@H](CSCc1ccccc1)NC(=O)NC(CC(=O)O)c1ccc2c(c1)OCO2 (stereo partly drawn) [3-(1,3-benzodioxol-5-yl)-3-{[({(1R)-1-[(benzylsulfanyl)methyl]-2-methylpropyl}amino)carbonyl]amino}propanoic acid]
4 | 100% | 10 µM | CC(C)[C@@H](CSCc1ccccc1)NC(=O)NC(CC(=O)O)c1ccc2c(c1)OCO2 (stereo partly drawn) [3-(1,3-benzodioxol-5-yl)-3-{[({(1S)-1-[(benzylsulfanyl)methyl]-2-methylpropyl}amino)carbonyl]amino}propanoic acid]
5 | 92% | 35 µM | CC(C)[C@@H](CS(=O)(=O)Cc1ccccc1)NC(=O)NC(CC(=O)O)c1ccc2c(c1)OCO2 (stereo partly drawn) [3-(1,3-benzodioxol-5-yl)-3-{[({(1S)-1-[(benzylsulfonyl)methyl]-2-methylpropyl}amino)carbonyl]amino}propanoic acid]
6 | 99% | 5 µM | CC(C)[C@@H](CSc1ccccc1)NC(=O)NC(CC(=O)O)c1ccc2c(c1)OCO2 (stereo partly drawn) [3-(1,3-benzodioxol-5-yl)-3-{[({(1S)-2-methyl-1-[(phenylsulfanyl)methyl]propyl}amino)carbonyl]amino}propanoic acid]
7 | 100% | 0.02 µM | Cc1ccccc1NC(=O)Nc1ccc(CNC(=O)[C@H](CC(C)C)NC(=O)NC(CC(=O)O)c2ccc3c(c2)OCO3)cc1 (stereo partly drawn) [3-(1,3-benzodioxol-5-yl)-3-{[({(1S)-3-methyl-1-[({4-[(2-toluidinocarbonyl)amino]benzyl}amino)carbonyl]butyl}amino)carbonyl]amino}propanoic acid]
8 | 96% | 25 µM | CSCC[C@@H](CSc1ccccc1)NC(=O)NCCC(=O)O [3-{[({(1S)-3-(methylsulfanyl)-1-[(phenylsulfanyl)methyl]propyl}amino)carbonyl]amino}propanoic acid]
9 | 89% | 45 µM | O=C(O)C[C@H](NC(=O)N[C@@H](CCCCNC(=O)OCc1ccccc1)C(=O)NCc1cccs1)C(=O)O [(2S)-2-({[((1S)-5-{[(benzyloxy)carbonyl]amino}-1-{[(2-thienylmethyl)amino]carbonyl}pentyl)amino]carbonyl}amino)butanedioic acid]
10 | 83% | 35 µM | CC(C)[C@@H](CSc1ccccc1)NC(=O)N[C@H](CC(=O)O)c1ccc2c(c1)OCO2 [(3R)-3-(1,3-benzodioxol-5-yl)-3-{[({(1S)-2-methyl-1-[(phenylsulfanyl)methyl]propyl}amino)carbonyl]amino}propanoic acid]
11 | 100% | 1 µM | O=C(O)C[C@H](NC(=O)N[C@H](CSc1ccccc1)CS(=O)(=O)Cc1ccccc1)c1ccc2c(c1)OCO2 [(3S)-3-(1,3-benzodioxol-5-yl)-3-(((((1R)-2-(benzylsulfonyl)-1-((phenylsulfanyl)methyl)ethyl)amino)carbonyl)amino)propanoic acid]
12 | 100% | 2.5 µM | CC(C)[C@@H](CSc1ccccc1)NC(=O)N[C@@H](CC(=O)O)c1ccc2c(c1)OCO2 [(3S)-3-(1,3-benzodioxol-5-yl)-3-(((((1S)-2-methyl-1-((phenylsulfanyl)methyl)propyl)amino)carbonyl)amino)propanoic acid]
13 | 100% | 0.3 µM | CSCC[C@@H](CSc1ccccc1)NC(=O)N[C@@H](CC(=O)O)c1ccc2c(c1)OCO2 [(3S)-3-(1,3-benzodioxol-5-yl)-3-(((((1S)-3-(methylsulfanyl)-1-((phenylsulfanyl)methyl)propyl)amino)carbonyl)amino)propanoic acid]
14 | 99% | 20 µM | CC(C)[C@@H](CSCCCc1ccccc1)NC(=O)N[C@@H](CC(=O)O)c1ccc2c(c1)OCO2 [(3S)-3-(1,3-benzodioxol-5-yl)-3-({[((1S)-2-methyl-1-{[(3-phenylpropyl)sulfanyl]methyl}propyl)amino]carbonyl}amino)propanoic acid]
15 | 100% | 6 µM | O=C(O)C[C@H](NC(=O)NCCSc1ccccc1)c1ccc2c(c1)OCO2 [(3S)-3-(1,3-benzodioxol-5-yl)-3-[({[2-(phenylsulfanyl)ethyl]amino}carbonyl)amino]propanoic acid]
16 | 100% | 2 µM | CCCSC[C@@H](Cc1ccccc1)NC(=O)N[C@@H](CC(=O)O)c1ccc2c(c1)OCO2 [(3S)-3-(1,3-benzodioxol-5-yl)-3-[({[(1R)-1-benzyl-2-(propylthio)ethyl]amino}carbonyl)amino]propanoic acid]
17 | 100% | 25 µM | CCCSC[C@H](NC(=O)N[C@@H](CC(=O)O)c1ccc2c(c1)OCO2)c1ccccc1 [(3S)-3-(1,3-benzodioxol-5-yl)-3-[({[(1R)-1-phenyl-2-(propylthio)ethyl]amino}carbonyl)amino]propanoic acid]
18 | 100% | 0.4 µM | CSCC[C@@H](CSc1cccc(NS(C)(=O)=O)c1)NC(=O)N[C@@H](CC(=O)O)c1ccc2c(c1)OCO2 [(3S)-3-(1,3-benzodioxol-5-yl)-3-[({[(1S)-1-[({3-[(methylsulfonyl)amino]phenyl}thio)methyl]-3-(methylthio)propyl]amino}carbonyl)amino]propanoic acid]
19 | 93% | 2 µM | CSCC[C@@H](CSc1ccc(NCc2ccccc2C)cc1)NC(=O)N[C@@H](CC(=O)O)c1ccc2c(c1)OCO2 [(3S)-3-(1,3-benzodioxol-5-yl)-3-[({[(1S)-1-[({4-[(2-methylbenzyl)amino]phenyl}thio)methyl]-3-(methylthio)propyl]amino}carbonyl)amino]propanoic acid]
20 | 100% | 0.3 µM | CSCC[C@@H](CSc1ccc(NS(=O)(=O)Cc2ccccc2)cc1)NC(=O)N[C@@H](CC(=O)O)c1ccc2c(c1)OCO2 [(3S)-3-(1,3-benzodioxol-5-yl)-3-[({[(1S)-1-[({4-[(benzylsulfonyl)amino]phenyl}sulfanyl)methyl]-3-(methylsulfanyl)propyl]amino}carbonyl)amino]propanoic acid]
21 | 100% | 3 µM | C[C@@H](CSc1ccccc1)NC(=O)N[C@@H](CC(=O)O)c1ccc2c(c1)OCO2 [(3S)-3-(1,3-benzodioxol-5-yl)-3-[({[(1S)-1-methyl-2-(phenylsulfanyl)ethyl]amino}carbonyl)amino]propanoic acid]

Row | SMILES | inhibition at 100 µM | IC50
22 | CC(C)(C)OC(=O)C[C@H](NC(=O)N[C@@H](CC(=O)O)c1ccc2c(c1)OCO2)c1ccc2c(c1)OCO2 [(3S)-3-(1,3-benzodioxol-5-yl)-3-[({[(1S)-1-(1,3-benzodioxol-5-yl)-3-(tert-butoxy)-3-oxopropyl]amino}carbonyl)amino]propanoic acid] | 100% | 4 µM
